Measured values from paper PMC8465649, “Semaphorin 3A—Glycosaminoglycans Interaction as Therapeutic Target for Axonal Regeneration” (Pharmaceuticals, 2021).

Assay: Potentiometric titration (protonation state)
Assay type: physicochemical
Conditions: 25 °C, 0.15 M NaCl
Description: UV absorbance was measured using a SpectraMax M5 spectrophotometer (Molecular Devices, Sunnyvale, CA, USA). The experiments were performed with a 10 μM methylene blue (MB) solution in 5 mM Tris-HCl buffer at pH 7.5, to which increasing amounts of heparin were added to saturation of the MB dye. For the competition assays, solutions of MB and heparin at fixed concentrations were titrated with increasing amounts of SICHI or CSIC02–04 peptoids. Then, the relative increase in absorbance at 665 nm, due to release of MB from the MB–heparin complex when adding either SICHI or CSIC02–04 to the cuvette, can be plotted vs. the charge ratio considering their respective concentrations and that all the peptoids have three positive charges, and heparin has four negative charges per disaccharide unit. With this information, the charge excess for 50% of displacement of the MB dye (CE50) for each compound can be calculated for comparison. Potentiometric titrations were carried out in a reaction vessel thermostated with a water bath at 25.0 ± 0.1 °C under nitrogen atmosphere, and 0.15 M NaCl was used as the supporting electrolyte. The titrant was delivered by a precision microburette. The potentiometric measurements were made with a pH-mV meter. The reference electrode was an Ag/AgCl electrode in saturated KCl solution. The acquisition of the emf data was performed with the computer program Tiamo 2.3.1. […]

CCN(CC)CCN(CC(=O)N(CCN1CCCC1)CC(=O)N(CCC1CCCN1C)CC(N)=O)C(=O)OCc1ccccc1 (stereo not shown) [CSIC02]
protonation state at neutral pH: triprotonated
